These results are taken from US9884851B2, “Heterocycle-bisamide inhibitors of scavenger receptor BI” (THE BROAD INSTITUTE, INC., priority 2012, dated 2018).

In brackets after ≈: the same amount, converted by molar mass. Where two headings read alike, the source gives them in different places.

The target of data set [1] is T1, murine SR-BI, isoform 1 (Mus musculus, UniProt Q61009).
T1 construct: expressed in transfected cells; host or cells: ldlA[mSR-BI], Chinese hamster ovary (CHO) cells lacking LDL receptor (Krieger Laboratory)
T1 sequence (Q61009 1-509): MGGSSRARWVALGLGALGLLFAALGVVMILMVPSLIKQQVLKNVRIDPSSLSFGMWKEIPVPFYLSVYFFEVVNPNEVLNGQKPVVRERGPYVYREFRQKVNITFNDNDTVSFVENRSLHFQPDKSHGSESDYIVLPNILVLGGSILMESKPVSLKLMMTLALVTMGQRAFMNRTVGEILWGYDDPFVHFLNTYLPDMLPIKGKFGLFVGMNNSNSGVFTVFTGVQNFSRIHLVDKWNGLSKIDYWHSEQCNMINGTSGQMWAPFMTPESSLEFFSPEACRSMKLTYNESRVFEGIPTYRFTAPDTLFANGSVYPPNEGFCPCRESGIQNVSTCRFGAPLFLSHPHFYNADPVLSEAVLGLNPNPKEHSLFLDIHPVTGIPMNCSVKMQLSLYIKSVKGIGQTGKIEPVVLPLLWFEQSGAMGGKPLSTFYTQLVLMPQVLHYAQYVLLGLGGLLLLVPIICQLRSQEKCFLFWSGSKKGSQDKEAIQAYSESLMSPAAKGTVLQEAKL
In words: DiI-HDL uptake assay (primary assay). Format: cell-based. The note with it: ldlA[mSR-BI] cells, 3 hours with compound. On the procedure:
The following cell lines were used in this study: • ldlA[mSR-BI] is a Chinese hamster ovary (CHO) cell line that overexpresses murine SR-BI, isoform 1 (NP_058021) and was obtained from the (Krieger Laboratory). This cell line was used for the primary assay and several secondary assays. […] Assays DiI-HDL Uptake Assay (Primary Assay AID Nos. 488896, 493194, 540354 588392, 588553, 588548, 588754, 588828, 588833)
ldlA[mSR-BI] cells were plated into 384-well plates at 30 μl per well and incubated overnight. As a measurable surrogate for cholesterol uptake, human HDL particles were treated with the lipophilic fluorescent dye DiI and exposed to ldlA[mSR-BI] cells in lipoprotein-free media (Ham's F12/0.5% fatty acid-free Bovine Serum Albumin (BSA)/25 mM HEPES pH 7.4 plus 10 μg protein/ml DiI-HDL). Cells took up the DiI via SR-BI over 3 hours in the presence of compound. After significant uptake of the DiI, the cells became fluorescent. The level of fluorescence correlates with the amount of DiI uptake and can be measured with a standard plate reader (here a PerkinElmer EnVision plate reader was used). The uptake of lipid (represented by DiI) was inhibited by the positive control compound BLT-1 or with an excess of HDL untreated with DiI. Primary HTS data were analyzed in Genedata Screener Assay Analyzer, and were normalized against DMSO and the positive control (1 μM BLT-1). For the HTS, the average of two replicates was used to rank order activity and to choose compounds for retests. For dose studies, percent (%) activity was determined for each concentration and the concentration response curves (CRCs) were generated with Genedata Condeseo.
To identify novel inhibitors, SR-BI-mediated lipid uptake was measured in an engineered cell line that minimized potential uptake by other mechanisms, including via the LDL receptor (1). ldlA[mSR-BI] cells overexpress murine isoform 1 and selectively take up HDL lipid at similar levels as “has been reported for cultured mouse adrenal cells, perfused organs, and liver, adrenal gland and ovary in vivo” (1). This primary cell-based assay was used in a pilot screen that identified BLTs 1 through 5. The assay was slightly modified from the original protocol of Nieland et al. to increase throughput and to ease automation procedures.
Briefly, the plate reader was switched to a Perkin-Elmer EnVision, several washing steps were eliminated, and the cell number per well was reduced without impacting the robustness of the assay. The automated assay was first tested with a validation set of 2,240 compounds. These compounds were tested in duplicate with in-plate neutral (DMSO) and positive (1 μM BLT-1) controls. Robustness, reproducibility, and variability parameters were analyzed before initiating the full HTS. The HTS was run over the course of several weeks. Data were normalized relative to controls, and plate patterns were corrected using a multiplicative algorithm in Genedata Screener Assay Analyzer. For each compound, the average of the two replicates was determined and used for subsequent analysis.

Data set [2] relates to hepatitis C virus (HCV). The data set is described as follows: In vitro testing with Huh-7.5 cells infected with HCV. Format: cell-based. The conditions noted are these: for inhibition of HCV replication (in words): Huh-7.5 cells infected with Jcl 378-1 TagRFP (MOI=0.1), 3 dpi. On the procedure:
A series of tests were conducted using the compound of Formula II (CID53393835/ML279), other known inhibitors of SR-BI and controls with cells infected with hepatitis C virus (HCV). The cells (Huh-7.5 cells infected with Jcl 378-1 TagRFP (MOI=0.1) 3 dpi) were treated with the following SR-BI compounds and controls:
Three different infection protocols were followed: (1) no wash—virus inoculum was removed 4hpi and fresh medium containing compounds added without washing cells; (2) 5× wash—virus inoculum was removed 4hpi, cells were washed 5× with PBS and fresh medium containing compounds added; and (3) no wash Opt—infection were performed in serum-free OptiMem; virus inoculum was removed 4hpi and fresh medium containing compounds added without washing cells. FIG. 90 provides a comparison of the three different infection set-ups. FIG. 91 provides a comparison of two independent experiments.

Data set [3] deals with HCVcc and HCVpp. The note with it: primary human hepatocytes and/or human hepatoma cell lines; cited from earlier work.
Data set [4] concerns ldlA[mSR-BI] cells. In words: Cell cytotoxicity assay (CellTiter-Glo). Here is the method: It is possible that a compound will cause cells to decrease HDL-mediated DiI uptake due to nonspecific consequences of cellular toxicity, representing a second class of false positive hits. The cells were treated with compounds for 3 hours or 24 hours, and then cell viability was measured using the CellTiter-Glo Assay (Promega), a luciferase-based reagent that measures cellular ATP levels. The compounds were tested at different concentrations to determine IC50 values. […] Data were normalized against DMSO and the positive control (1 μM BLT-1) in Genedata Assay Analyzer.
All available dry powder samples of the remaining, non-quenching compounds were procured from commercial sources and purities were determined. The compounds obtained were then retested in the primary assay and in cytotoxicity assays. We wanted to rule out any compounds that were cytotoxic, especially in the 3-hour time span of the primary DiI-HDL uptake assay. Therefore, compounds were tested in ldl[mSR-BI] cells for cytotoxicity at 3 hours and 24 hours using the CellTiter-Glo assay (Promega) that measures cellular ATP as a marker of cell viability. […] Compounds were screened for inhibition of endocytosis using labeled transferrin, which is known to bind the transferrin receptor, enter cells by clathrin-mediated endocytosis, and move to endosomes before being recycled to the cell surface.

The test system of data set [5] is endocytosis of transferrin. The data set is described as follows: Transferrin endocytosis assay. Format: cell-based, Chinese hamster. The note with it: concentrations up to 35 μM. An excerpt:
Transferrin Endocytosis Assay (SA 3: AID No. 602134)
This assay measures the endocytosis of an independent ligand, transferrin, which is not taken up via SR-BI but by clathrin-mediated endocytosis; thus providing a measure of the selectivity of the inhibitors. Alexa-594-labeled transferrin is taken into the cell via endocytosis and localization of labeled transferrin can be quantitated in the various intracellular compartments. […] Inhibitors of interest should act selectively at SR-BI and should have no activity in this assay.
Cells were pre-treated with compound for 3 hours and then treated with the Alexa-594 transferrin reagent for 30 minutes (Catalog No. T-13343; Invitrogen) in serum-free media. Plates of cells were then placed onto ice, washed with ice cold PBS, and then fixed with 4% paraformaldehyde. In addition, the nuclei were stained with 300 nM 4′,6-diamidino-2-phenylindole (DAPI) (Catalog No. 21490; Invitrogen). The cells were imaged with the Molecular Devices IXM microscope. Translocation measurements were performed using MetaExpress software and normalized for cell number.

A short description of data set [6]: Solubility in PBS. Format: physicochemical. The conditions noted are these: PBS pH 7.4, 23° C., 1% DMSO. Here is the method: We noticed that the concentration of the probe fluctuated through the course of the assay (data not shown). We believe that this fluctuation is due to the low kinetic solubility of the probe. Thus, we decided to determine the amount of undissolved probe present in the well after it was treated with PBS for a given length of time, relative to the amount of undissolved probe at the start of the assay. The wells were centrifuged and the supernatant was removed after various time points, then acetonitrile was added to dissolve the remaining solid in the wells, and the amount of probe was quantified. […] The stability of the probe was confirmed by measuring stability in human plasma, with >99% remaining after a 5-hour incubation period. […] FIG. 5 summarizes known properties of the probe.

Data set [7] concerns the target T2, SR-BI (Mus musculus, UniProt Q61009).
T2 sequence (Q61009 1-509): T1 sequence (Q61009 1-509)
The data set is described as follows: HDL binding assay (Alexa 488 HDL). The format is cell-based, murine. Details: expressed in transfected cells; host or cells: ldlA[mSR-BI], Chinese hamster ovary (CHO) cells lacking LDL receptor (Krieger Laboratory). The note with it: Alexa Fluor 488-labeled HDL. On the procedure:
HDL binding was assessed using Alexa Fluor 488-labeled HDL particles. For this assay, the Alexa 488 dye was directly covalently bound to apolipoprotein components of the HDL particle via primary amines; thus, no transfer of the fluorophore to cell membranes occurs. Instead, direct binding of the HDL particles to SR-BI can be measured. As a positive control, BLT-1, which is known to increase binding, was used at 1 μM. It is possible that a compound can reduce binding of HDL to the receptor, and this would lead to a decrease in signal. This assay is used to characterize the mechanism of action of a particular compound; therefore, any outcome in the assay is acceptable. Data were normalized against DMSO and the positive control (1 μM BLT-1) in Genedata Assay Analyzer.

For data set [8] the following is noted: mice; cited from earlier work.
The conditions of data set [9]: hamsters; cited from earlier work.
For data set [10], the target named is T2, SR-BI. The note with it: cited from earlier work.

Consider `C[C@@H](C(=O)NC1CCCC1)N(C(=O)Cn1nnc(-c2ccc3c(c2)OCO3)n1)C1CCCCC1` [(S)-isomer], for which the IC50 (as a rule, the concentration needed to halve the response being measured) in [1] came to 1600 nM.
As to `COc1c(NC(=O)C(=O)c2ccc(OCCN3CCOCC3)c3ccccc23)cc(C(C)(C)C)cc1NS(C)(=O)=O` [ITX-5061], the half-maximal inhibitory concentration (IC50) in data set [1] came to 254 nM. Besides, the “inhibition of HCV replication (in words)” value in data set [2] (listed as 9) is “able to inhibit HCV replication”; in data set [2] (listed as SRB1-9), “inhibited viral replication”. In [2] (dose dependence), the “mean fluorescence intensity (MFI) of HCV positive cells (in words)” value is “this increase was not seen”. The “HCVcc and HCVpp infection (in words)” value in [3] is “inhibit HCVcc and HCVpp infection”.
In the case of `COCC(=O)N1CCc2cc(-c3csc(NC(=O)c4cc(OC)cc(OC)c4)n3)ccc21` [ML278, reference compound], in [1], the concentration for half-maximal inhibition (IC50) worked out at 0.93 nM.
For the compound `COc1ccc(-c2nnn(CC(=O)N(C3CCCCC3)C(C)C(=O)NC3CCCC3)n2)cc1OC` (centres unmarked) [MLS000888573, reference compound], the IC50 in data set [1] is 51 nM; in data set [1] (listed as hit compound) it was 58 nM; in [4] (read-out: 3 h CellTiter-Glo IC50, 3 hours treatment) it was greater than 35000 nM; in [4] (read-out: 24 h CellTiter-Glo cytotoxicity IC50, 24 hours treatment), greater than 35000 nM. For the same compound, the “endocytosis of transferrin (in words)” value in [5] is “not grossly perturbing cellular membrane trafficking pathways”. Also, the solubility – broadly, the dissolved amount per volume that the medium holds – in [6] came to 114 µM (≈ 55.2 µg/mL). In addition, the AC50 (usually the concentration at which the activity in the assay is half-maximal) in data set [7] was 600 nM.
In the case of `CC(C)(C)OC(=O)N1CCN(c2ccc(NC(=O)c3cc([N+](=O)[O-])ccc3Cl)cc2)CC1` [R-138329], the “HDL-cholesterol (in words)” value in data set [8] and in data set [9] was “increased HDL-cholesterol” each time.
`COc1ccc(Cl)cc1C(=O)NCCc1ccc(S(=O)(=O)NC(=O)NC2CCCCC2)cc1` [glyburide]: the “cholesterol efflux inhibition (in words)” value in [10] is on record as “relatively weak inhibitor of cholesterol efflux”.
